Where two headings read alike, the source gives them in different places. Where no end group is shown, it is not given here.

The source of these data is publication PMC5789083, “Mechanisms driving the antibacterial and antibiofilm properties of Hp1404 and its analogue peptides against multidrug-resistant Pseudomonas aeruginosa” (Scientific Reports, 2018).

Data set [1] concerns Pseudomonas aeruginosa and MRPA strains. In words: microbe, parasite or virus in culture. The format is cell-based. The note with it: broth micro-dilution, 37 °C, 18–24 h. An excerpt:
Gram-negative (Pseudomonas aeruginosa ATCC 27853) bacterial strains were obtained from the ATCC (American Type Culture Collection; Manassas, VA, USA). Multidrug-resistant strains (Pseudomonas aeruginosa 138, 431, 434, 557, 559, 778, 1034, 1162, 3290, 3399, 3592, 3904, 4007, 4319, 4891, 5018, and 671973) were obtained from the Chonnam National University Hospital (Gwangju, South Korea).
(§1) We examined the activity of each peptide against both pseudomonas aeruginosa and multidrug-resistant strains. The minimal inhibitory concentrations (MICs) of peptides were determined using the broth micro-dilution assay as described previously. Briefly, bacterial strains were cultivated with shaking overnight at 37 °C. The next day, they were diluted to a density of 2 × 10^5 CFU/mL with growth medium. Peptides were serially diluted with 10 mM sodium phosphate buffer. 50 µL bacterial aliquots were mixed with an equal volume of peptide solution, and incubated at 37 °C for 18–24 h. Inhibition of bacterial growth was determined by measuring the absorbance at 600 nm using a Versa Max microplate reader (Molecular Devices, Sunnyvale, CA, USA). The test was performed in triplicate.
For orientation: In broth dilution the organism is exposed to a series of concentrations in liquid medium.

The next data set relates to HaCaT cells. The data set can be described thus: Cytotoxicity, MTT assay. In kind it is cell-based, human. The settings on record: 50 µM, 24 h. The procedure:
We used the MTT assay to evaluate the toxicity of the peptides toward human skin epithelial cells (HaCaT) as previously described. Briefly, HaCaT cells were seeded at a density of 2 × 10^4 cells per well in 96-well microtiter plates in Dulbecco’s modified Eagle’s medium (DMEM) containing 10% foetal bovine serum (FBS) at 37 °C under 5% CO2 atmosphere. The next day, peptides were added to each well at various final concentrations (higher concentration of 200 µM). After 24 h incubation, culture supernatants were removed. 0.5 mg/mL MTT was added to each well, and the plates were incubated for 4 h at 37 °C. The medium was replaced by dimethyl sulfoxide (DMSO) to dissolve the formazan crystals formed in the wells. The absorbance at 570 nm was measured using a Versa-Max microplate ELISA reader (Molecular Devices). The viability rate was calculated using the following formula: Cell viability (%) = (absorbance of treated sample)/(absorbance of control) × 100.
In general terms: Tetrazolium assays rely on reduction of a dye to a coloured formazan, in cell work by metabolically active cells.

The next data set relates to P. aeruginosa 27853. The format is cell-based, Pseudomonas aeruginosa. The method, then: as §1
The effects of various cations on the antibacterial activities of the parental and analogue peptides against P. aeruginosa 27853 were evaluated as previously described. Bacteria was treated with peptides at a final concentration 25 µM in the presence of physiological salts such as NaCl (50 mM, 100 mM, and 150 mM), CaCl2 (1.25 mM, 2.5 mM, and 5 mM), or MgCl2 (0.5 mM, 1 mM, and 2 mM). The MIC values were determined as described above.

Data set [2] has as its system P. aeruginosa strains (biofilm formation). In kind it is cell-based, Pseudomonas aeruginosa. The note with it: 24 h, 37 °C, crystal violet OD595. The method, then:
To evaluate the ability of bacterial strains to form biofilms either in the absence or presence of peptides, antibiotic-susceptible P. aeruginosa (ATCC 27853), and various strains of MDR P. aeruginosa were cultured in nutrient broth (NB). […]. The biofilms were fixed with 100% methanol for 15 min, stained with 0.1% crystal violet (CV) for 1 h, and rinsed three times with distilled water (dH2O). After the addition of 95% ethanol, biofilm mass was quantified by measuring OD at 595 nm using a Versa-Max microplate ELISA reader (Molecular Devices). Results were expressed as the percentage of biofilm formed with respect to the control. […] All experiments were performed at least in triplicate.

The mark [3] stands for this setting: P. aeruginosa 138 (multidrug-resistant), triplicate.
The mark [4] stands for this setting: P. aeruginosa 431 (multidrug-resistant), triplicate.
[5] abbreviates: P. aeruginosa 434 (multidrug-resistant), triplicate.
The mark [6] stands for this setting: P. aeruginosa 557 (multidrug-resistant), triplicate.
[7] abbreviates: P. aeruginosa 559 (multidrug-resistant), triplicate.
The mark [8] stands for this setting: P. aeruginosa 778 (multidrug-resistant), triplicate.
[9] abbreviates: P. aeruginosa 1034 (multidrug-resistant), triplicate.
The mark [10] stands for this setting: P. aeruginosa 1162 (multidrug-resistant), triplicate.
Where [11] appears, read: P. aeruginosa 3290 (multidrug-resistant), triplicate.
[12] abbreviates: P. aeruginosa 3399 (multidrug-resistant), triplicate.
Setting [13] is: P. aeruginosa 3543 (multidrug-resistant), triplicate.
Setting [14] is: P. aeruginosa 3592 (multidrug-resistant), triplicate.
[15] abbreviates: P. aeruginosa 3904 (multidrug-resistant), triplicate.
[16] abbreviates: P. aeruginosa 4007 (multidrug-resistant), triplicate.
[17] abbreviates: P. aeruginosa 4319 (multidrug-resistant), triplicate.
[18] abbreviates: P. aeruginosa 4891 (multidrug-resistant), triplicate.
Setting [19] is: P. aeruginosa 5018 (multidrug-resistant), triplicate.
The mark [20] stands for this setting: P. aeruginosa 671973 (multidrug-resistant), triplicate.
The mark [21] stands for this setting: P. aeruginosa ATCC 27853, 2 × 10^5 CFU/mL, A600, triplicate.

Consider ILGKLWEGVKSI-NH2 [Hp1404-T1], for which the MIC in data set [1] (setting [3]), in data set [1] (setting [4]), in data set [1] (setting [5]), in data set [1] (setting [6]), in data set [1] (setting [7]) and in data set [1] (setting [8]) was >25 µM throughout. Further, the MIC in data set [1] (setting [9]), in data set [1] (setting [10]), in data set [1] (setting [11]), in data set [1] (setting [12]), in data set [1] (setting [13]) and in data set [1] (setting [14]) was >25 µM throughout. In addition, the MIC in data set [1] (setting [15]), in data set [1] (setting [16]), in data set [1] (setting [17]), in data set [1] (setting [18]), in data set [1] (setting [19]) and in data set [1] (setting [20]) was >25 µM each time. Further, the MIC in data set [1] (setting [21]) is reported as >25 µM.

As for ILKKLLKGVKSI-NH2 [Hp1404-T1c], the MIC in data set [1] (setting [3]) came to 25 µM; in data set [1] (setting [4]) it was 12.5 µM; in data set [1] (setting [5]), 6.25 µM; in data set [1] (setting [6]) it was 25 µM; in data set [1] (setting [7]), 25 µM; in data set [1] (setting [8]), 6.25 µM. Moreover, the MIC in data set [1] (setting [9]) is given as 6.25 µM; in data set [1] (setting [10]), 3.13 µM; in data set [1] (setting [11]), >25 µM; in data set [1] (setting [12]), 3.13 µM; in data set [1] (setting [13]), >25 µM; in data set [1] (setting [14]) it was 6.25 µM. Also, the MIC in data set [1] (setting [15]) turned out to be 6.25 µM; in data set [1] (setting [16]), 12.5 µM; in data set [1] (setting [17]) it was 6.25 µM; in data set [1] (setting [18]) it was 6.25 µM; in data set [1] (setting [19]) it was 3.13 µM; in data set [1] (setting [20]), 6.25 µM. For the same substance, the MIC in data set [1] (setting [21]) is 3.13 µM; in the data set with P. aeruginosa 27853 (CaCl2 1.25 mM), >25 µM; against P. aeruginosa 27853 (CaCl2 2.5 mM) it was >25 µM; against P. aeruginosa 27853 (CaCl2 5 mM), >25 µM; in the data set on P. aeruginosa 27853 (MgCl2 0.5 mM) it was 12.5 µM; against P. aeruginosa 27853 (MgCl2 1 mM), 12.5 µM. The MIC against P. aeruginosa 27853 (MgCl2 2 mM), against P. aeruginosa 27853 (NaCl 50 mM), in the data set with P. aeruginosa 27853 (NaCl 100 mM) and in the data set with P. aeruginosa 27853 (NaCl 150 mM) was >25 µM in each case. The “survival rate of HaCaT cells” value in the data set with HaCaT cells turned out to be 51%. Also, the MBIC in data set [2] (P. aeruginosa 434) came out at 50 µM; in data set [2] (P. aeruginosa 559) it was 25 µM; in data set [2] (P. aeruginosa 778) it was 25 µM; in data set [2] (P. aeruginosa 1034), 25 µM; in data set [2] (P. aeruginosa 1162), 12.5 µM; in data set [2] (P. aeruginosa 3399), 25 µM. The MBIC in data set [2] (P. aeruginosa 3543) is reported as >50 µM; in data set [2] (P. aeruginosa 4007), >50 µM; in data set [2] (P. aeruginosa 27853, 5 × 10^5 CFU/mL, 0.2% glucose), 25 µM.

As to Buforin2 [reference compound], the MIC in data set [1] (setting [3]) stood at 12.5 µM; in data set [1] (setting [4]), 6.25 µM; in data set [1] (setting [5]) it was 6.25 µM; in data set [1] (setting [6]) it was 6.25 µM; in data set [1] (setting [7]), 12.5 µM; in data set [1] (setting [8]), 12.5 µM. For the same substance, the MIC was found to be 6.25 µM in data set [1] (setting [9]); 12.5 µM in data set [1] (setting [10]); 6.25 µM in data set [1] (setting [11]); 12.5 µM in data set [1] (setting [12]); 12.5 µM in data set [1] (setting [13]); 3.13 µM in data set [1] (setting [14]). In addition, the MIC is listed as 6.25 µM in data set [1] (setting [15]); 12.5 µM in data set [1] (setting [16]); 12.5 µM in data set [1] (setting [17]); >25 µM in data set [1] (setting [18]); 12.5 µM in data set [1] (setting [19]); 3.13 µM in data set [1] (setting [20]). This substance also had an MIC in data set [1] (setting [21]) of 25 µM.

Turning to ILKKLWEGVKSI-NH2 [Hp1404-T1a], the MIC in data set [1] (setting [3]) is listed as >25 µM; in data set [1] (setting [4]), 25 µM; in data set [1] (setting [5]) it was 25 µM; in data set [1] (setting [6]) it was >25 µM; in data set [1] (setting [7]), >25 µM; in data set [1] (setting [8]) it was >25 µM. The MIC is on record as >25 µM in data set [1] (setting [9]); >25 µM in data set [1] (setting [10]); >25 µM in data set [1] (setting [11]); 25 µM in data set [1] (setting [12]); >25 µM in data set [1] (setting [13]); 12.5 µM in data set [1] (setting [14]). Also, the MIC is 25 µM in data set [1] (setting [15]); >25 µM in data set [1] (setting [16]); >25 µM in data set [1] (setting [17]); 25 µM in data set [1] (setting [18]); >25 µM in data set [1] (setting [19]); 25 µM in data set [1] (setting [20]). Moreover, in data set [1] (setting [21]), the MIC is on record as >25 µM.

For the substance ILKKLLEGVKSI-NH2 [Hp1404-T1b], the MIC was >25 µM in data set [1] (setting [3]); >25 µM in data set [1] (setting [4]); 25 µM in data set [1] (setting [5]); >25 µM in data set [1] (setting [6]); >25 µM in data set [1] (setting [7]); >25 µM in data set [1] (setting [8]). In addition, the MIC in data set [1] (setting [9]) is recorded as >25 µM; in data set [1] (setting [10]), >25 µM; in data set [1] (setting [11]), >25 µM; in data set [1] (setting [12]), >25 µM; in data set [1] (setting [13]) it was >25 µM; in data set [1] (setting [14]), 25 µM. Further, the MIC in data set [1] (setting [15]), in data set [1] (setting [16]), in data set [1] (setting [17]), in data set [1] (setting [18]), in data set [1] (setting [19]) and in data set [1] (setting [20]) was >25 µM each time. For the same substance, in data set [1] (setting [21]), the MIC is recorded as >25 µM.
